Results as given in patent US7294463B2, “Method of screening for compounds that modulate activity of a regulatory sequence of the β-2 subunit of a neuronal nicotinic acetylcholine receptor” (Institut Pasteur, priority 1994, dated 2007).
Read-outs that look alike come from different tables or passages of the source.

Legend:
[1] = test system: neurons of the anterior thalamus; assay type: cell-based, mouse
Protocol: (§1) METHODS, Coronal slices were obtained from the thalamus of 8-12 day old mice using a Dosaka slicer in ice cold ACSF medium (125 mM NaCl/26 mM NaHCO3/25 mM Glucose/1.25 mM NaH2PO4/2.5 mM KCl 2.5/2 mM CaCl2/1 mM MgCl2 pH 7.3). Slices were maintained in the same medium for 1-8 hours. Cells in slices were visualized through a Zeiss microscope. Whole cell recordings were obtained with 2-4 MOhm hard-glass pipettes containing 150 mM CsCl/10 mM EGTA/10 mM HEPES/4 mM di-sodium ATP/4 mM MgCl2 pH adjusted to 7.3 with KOH. Five to ten sec. pulses of drug were applied rapidly to the cell through a […] pipette above the slice, fed by gravity with a solution containing 150 mM NaCl/10 mM Hepes/2.5 mM KCl/2 mM CaCl2/1 mM MgCl2. Recordings were made in the presence of CNQX (5 μM) and of the GABAA antagonist SR-95531 (10 μM). Currents were recorded with an Axopatch ID (Axon Instrument) patch amplifier, digitized on a Compaq PC and further analyzed with the PClamp program (Axon Instrument).

[2] = test system: neurons in the MHb; experiment: Patch clamp recording of nicotine evoked currents, medial habenula (MHb); assay type: cell-based, mouse; conditions: for Agonist potency rank order: wild type
Protocol: as §1

[3] = test system: β2−/− mice and their wildtype siblings
Protocol: METHODS, Passive avoidance test was performed as described in the text, according to Nordberg and Bergh^20 and Faiman et al^20. Nicotine (bitartrate, Sigma) was freshly dissolved in PBS. IP injection of the same volume of either nicotine or vehicle immediately followed footshock during the training trial.
Retention of an inhibitory avoidance response was assessed using the passive avoidance test, which was also chosen for its pharmacological sensitivity to nicotine administration ^19,20. This test consisted of a training trial in which the mouse was placed in a well-lighted chamber of a shuttle box, and the latency to enter the adjacent dark chamber was measured. Upon entry to the dark chamber, a mild, inescapable foot shock was delivered, and vehicle or nicotine (10 μg/kg) was injected into the mouse. Twenty-four (24) hours later, retention was assessed by measuring the latency to enter the dark chamber.

[4] = biological target: high affinity nAChR (Mus musculus, UniProt O70174+Q9ERK7); conditions: 3H-nicotine 4 nM, all brain areas of β2+/− mice
Protocol: (§2) Following incubation, sections were rinsed 2×2 min. in ice cold PBS and briefly rinsed in ice cold water. Slides were exposed for 60 days to Hyperfilm ^3H.

[5] = test system: high affinity nAChR; conditions: 3H-nicotine 4 nM, brain sections of β2−/− mice
Protocol: as §2

[6] = biological target: high affinity sites; conditions: read-out: KD of high affinity sites; equilibrium binding experiments; cited from earlier work
[7] = test system: nuclear extracts from neuroblastomas or fibroblasts; experiment: Gel shift assay, competition against 32P labelled E-D probe; assay type: binding; conditions: excess of unlabelled competitor
From the text: FIG. 7: Gel shift experiment. Autoradiogram of the mobility shift experiment. The probe used was a ^32P labelled double stranded E-D oligonucleotide. This oligonucleotide carries only the E-Box/Dyad element, whereas the oligonucleotide S-E carries the Sp1 binding site as well as the E-Box/Dyad element. The competitor oligonucleotides were used in 10- and 100-fold molar excess, except for S-E that was used only in 100-fold molar excess.
Oligonucleotides were labeled either with Y[^32P]ATP and T4 polynucleotide kinase, or with ∝[^32P]CTP and Klenow enzyme as in Current Protocols in Molecular Biology. Nuclear extracts were prepared from ˜10^7 cells as described (Bessis et al., 1993). For binding, […] of labeled oligonucleotide was mixed with 0.5 μg of protein extract in 10 mM Hepes pH 8, 10% glycerol], 0.1 mM EDTA, 0.1 M NaCl, 2 mM DTT, 0.1 mg/ml BSA, 4 mM MgCl2, 4 mM spermidine, 1 mM PMSF, 1 μg polydldC in 20 μl. The reaction was incubated for 10 minutes on ice. The DNA-protein complexes were then analyzed on a 7% polyacrylamide gel.
To further understand the role of the E-Box in the regulation of the promoter, we investigated the protein complexes able to interact with this sequence. Gel shift assays were performed using the 33 bp sequence (nt-135 to -103, oligonucleotide E-D) as a probe. […]

high affinity nAChR (Mus musculus, UniProt O70174+Q9ERK7), sequence (Q9ERK7 26-501): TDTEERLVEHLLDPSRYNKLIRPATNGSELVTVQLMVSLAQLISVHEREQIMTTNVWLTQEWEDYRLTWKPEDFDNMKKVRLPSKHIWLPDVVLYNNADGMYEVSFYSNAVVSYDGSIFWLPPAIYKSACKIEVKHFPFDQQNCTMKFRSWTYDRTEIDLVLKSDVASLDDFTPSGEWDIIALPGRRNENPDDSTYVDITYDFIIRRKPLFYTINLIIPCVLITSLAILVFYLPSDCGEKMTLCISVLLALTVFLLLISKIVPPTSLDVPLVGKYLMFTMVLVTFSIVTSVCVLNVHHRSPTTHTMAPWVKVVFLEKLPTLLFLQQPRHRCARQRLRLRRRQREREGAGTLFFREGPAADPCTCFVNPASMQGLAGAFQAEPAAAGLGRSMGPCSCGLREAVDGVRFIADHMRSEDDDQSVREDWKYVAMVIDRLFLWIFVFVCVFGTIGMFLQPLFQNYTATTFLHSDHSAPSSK
high affinity nAChR (Mus musculus, UniProt O70174+Q9ERK7), sequence (O70174 31-629): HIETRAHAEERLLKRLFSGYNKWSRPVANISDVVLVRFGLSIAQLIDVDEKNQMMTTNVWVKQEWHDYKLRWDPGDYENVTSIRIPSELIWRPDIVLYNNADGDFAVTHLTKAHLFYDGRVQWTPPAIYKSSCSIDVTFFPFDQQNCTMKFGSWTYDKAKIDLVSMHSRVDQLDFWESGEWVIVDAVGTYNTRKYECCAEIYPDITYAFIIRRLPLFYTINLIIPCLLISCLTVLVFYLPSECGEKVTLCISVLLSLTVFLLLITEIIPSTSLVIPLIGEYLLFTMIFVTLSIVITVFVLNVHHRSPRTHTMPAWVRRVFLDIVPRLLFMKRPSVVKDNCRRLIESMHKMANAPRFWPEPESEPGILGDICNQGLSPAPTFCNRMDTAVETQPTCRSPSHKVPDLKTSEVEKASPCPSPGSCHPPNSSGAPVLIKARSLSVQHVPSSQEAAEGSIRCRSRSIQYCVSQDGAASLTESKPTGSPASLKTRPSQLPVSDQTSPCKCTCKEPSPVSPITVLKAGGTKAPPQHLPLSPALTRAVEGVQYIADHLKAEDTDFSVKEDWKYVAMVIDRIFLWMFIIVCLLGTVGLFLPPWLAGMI

## C[N+]1(C)CCN(c2ccccc2)CC1 [DMPP]
[1]; wild type, anterior thalamus
  Agonist order of the response: nicotine>DMPP>cytisine
[2]; MHb
  Agonist potency rank order: cytisine=nicotine>DMPP

## CN1CCCC1c1cccnc1 (stereo not shown) [nicotine]
[1]; 10 μM nicotine, wild type animals
  Average inward current: 155+/−73 pA
[1]; anterior thalamic neurons
  Dose required for a reproducible response: 1 µM
[1]; wild type, anterior thalamus
  Agonist order of the response: nicotine>DMPP>cytisine
[1]; β2−/− mice, 100% of neurons tested
  Response of anterior thalamic neurons to nicotine: completely abolished
[2]; mutant mice
  Response of cells in the MHb to nicotine: maintained
[2]; wild type mice, MHb
  Average inward current: 505+/−132 pA
[2]; MHb
  Agonist potency rank order: cytisine=nicotine>DMPP
[3]; nicotine 10 μg/kg IP post-training, retention after 24 hours, wild type mice, p<0.01
  Upward shift of retention latency curve: approximately 80 sec
[3]; nicotine 10 μg/kg, mutant (β2−/−) mice
  Effect of nicotine administration on retention: completely ineffective
[4]
  Reduction of nicotine binding in situ: approximately 50%
[5]
  Nicotine binding in situ: completely abolished
[6]
  Kd: ~10 nM

## CO[C@H]1CC=C2CCN3CCC4=C(CC(=O)OC4)[C@]23C1 [dihydro-β-erythroidine]
[1]; 1 μM antagonist, 10 μM nicotine, wild type
  Effect on the nicotine evoked inward current: blocked

## O=c1cccc2n1C[C@@H]1CNC[C@H]2C1 [cytisine]
[1]
  Agonist order of the response: nicotine>DMPP>cytisine
[2]; MHb
  Agonist potency rank order: cytisine=nicotine>DMPP

## 5′-TCCTCCCCTAGTAGTTCCACTTGTGTTCCCTAG [E-D]
[7]
  Competition for complexes formed with labelled E-D probe: fully displaced

## 5′-CCTCCCCTAGTAGTTCCTCAGGTGTTCCCTAGA [Mut.E]
[7]
  Competition for complexes formed with labelled E-D probe: no competition
